Reference: patent US10113185B2, “Utilization of phosphoketolase in the production of mevalonate, isoprenoid precursors, and isoprene” (Danisco US Inc., priority 2011, dated 2018)
Where two headings read alike, the source gives them in different places.

Assays:
[1] = tested on: Enterococcus gallinarum phosphoketolase (E. gallinarum PKL), encoded by SEQ ID NO:17; experiment: Kinetic analysis of purified E. gallinarum phosphoketolase (ferric hydroxamate assay, AcP formation); assay type: biochemical
Method: The amino acid sequence of Enterococcus gallinarum PKL was obtained from GeneBank and was processed in GeneArt optimization software for optimized expression in E. coli. Two base pairs were added in front of the PKL gene to form a NcoI site and a Sad site was inserted just after the stop codon. The synthesized PKL gene was cloned into GeneArt kanamycin-resistant cloning plasmid. The E. gallinarum PKL gene (SEQ ID NO:17) was then subcloned into a BspHI/SacI-digested pTrcHis2B vector (Life Technologies, Carlsbad, Calif.) to form plasmid pCMP1321.
Cells were grown in LB medium with 50 ug/ml carbenecillin at 37 C prior to induction. […] For purification, E. gallinarum PKL cell pellets were resuspended in 50 mM MES pH 6.0, 50 mM NaCL, 0.5 mM AEBSF, 0.1 mg/ml DNaseI. […] Clarified lysate containing PKL from E. gallinarum was loaded onto a DEAE HiTrap FF column equilibrated in 50 mM MES, 50 mM NaCl, pH 6 and eluted with a gradient to 50 mM MES, 1M NaCl, pH 6. The resulting fractions were analyzed by SDS-PAGE. Fractions containing PKL were pooled and desalted using a G25 desalting column into 50 mM MES, 50 mM NaCL pH 6.0. Further purification was achieved using a MonoQ 10/100 GL column equilibrated in 50 mM MES, 50 mM NaCL, pH 6 with a salt gradient to 1M NaCl. Fractions containing PKL were pooled and analyzed by SDS PAGE, quantitation was achieved using A280 a molar extinction coefficient of 136980 determined by Vector NTI.
Time points were taken at various intervals. […] An AcP standard curve ranging between 12.5 and 0.2 mM was generated for quantitation.

[2] = tested on: Bifidobacterium lactis phosphoketolase; conditions: Meile et al. (2001), cited from earlier work
[3] = target: T1, Bifidobacterium longum phosphoketolase (B. longum PKL), SEQ ID NO: 4 (encoded by SEQ ID NO:3) (Bifidobacterium longum, UniProt A0ACD7USP0); conditions: 37° C., pH 6, saturating Pi (20 mM), enzyme 0.25 μM, time measured 60
T1 sequence (A0ACD7USP0 1-825): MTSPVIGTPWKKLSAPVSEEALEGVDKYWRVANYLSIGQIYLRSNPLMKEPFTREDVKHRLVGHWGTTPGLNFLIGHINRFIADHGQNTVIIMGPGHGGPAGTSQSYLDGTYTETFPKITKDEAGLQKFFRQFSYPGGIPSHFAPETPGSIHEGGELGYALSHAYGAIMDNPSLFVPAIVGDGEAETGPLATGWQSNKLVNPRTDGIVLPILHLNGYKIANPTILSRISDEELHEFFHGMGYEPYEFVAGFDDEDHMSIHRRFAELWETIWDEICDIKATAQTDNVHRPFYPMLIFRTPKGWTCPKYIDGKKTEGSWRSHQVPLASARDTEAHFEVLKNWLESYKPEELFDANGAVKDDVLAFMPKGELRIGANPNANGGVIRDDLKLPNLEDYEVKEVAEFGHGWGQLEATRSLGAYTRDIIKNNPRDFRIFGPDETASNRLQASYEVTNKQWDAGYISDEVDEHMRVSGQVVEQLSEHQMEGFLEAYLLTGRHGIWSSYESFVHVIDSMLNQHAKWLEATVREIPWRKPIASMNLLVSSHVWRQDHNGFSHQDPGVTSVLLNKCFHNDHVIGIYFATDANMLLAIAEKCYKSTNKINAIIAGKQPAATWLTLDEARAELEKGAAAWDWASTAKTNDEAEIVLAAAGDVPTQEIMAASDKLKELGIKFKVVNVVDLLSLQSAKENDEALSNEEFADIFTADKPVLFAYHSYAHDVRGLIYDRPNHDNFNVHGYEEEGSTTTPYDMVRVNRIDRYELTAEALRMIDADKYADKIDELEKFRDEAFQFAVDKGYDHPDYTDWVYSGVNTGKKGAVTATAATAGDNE

[4] = tested on: Bifidobacterium longum BB536 phosphoketolase; conditions: Grill et al. (1995), cited from earlier work
[5] = tested on: Bifidobacterium dentium ATCC27534 phosphoketolase; conditions: Grill et al. (1995), cited from earlier work
[6] = tested on: Bifidobacterium animalis ATCC 25527 phosphoketolase; conditions: Grill et al. (1995), cited from earlier work
[7] = tested on: Bifidobacterium globosum ATCC 25864 phosphoketolase; conditions: Grill et al. (1995), cited from earlier work
[8] = tested on: Lactobacillus plantarum phosphoketolase; conditions: cited from earlier work
[9] = tested on: Bifidobacterium breve phosphoketolase; conditions: cited from earlier work
[10] = tested on: Lactobacillus paraplantarum C7 phosphoketolase; conditions: Jeong et al. (2007), cited from earlier work
[11] = tested on: Leuconostoc oenos phosphoketolase; conditions: Veiga-da-Cunha et al. (1993), cited from earlier work
[12] = substrate: O=P(O)(O)OC[C@H]1OC(O)(CO)[C@@H](O)[C@@H]1O; experiment: purified protein, by the assay type; conditions: other: 37° C., pH 6, saturating Pi (20 mM), enzyme 0.25 μM, time measured 60
[13] = 37° C., pH 6, saturating Pi (20 mM), enzyme 0.5 μM, time measured 30

Molecule: O=P(O)(O)OC[C@H]1OC(O)(CO)[C@@H](O)[C@@H]1O (stereo partly drawn) [F6P, fructose 6-phosphate]
- Km [1, 13]: 2.86 mM
- Vmax [1, 13]: 0.71 µM/s
- kcat [1, 13]: 1.4 s⁻¹
- kcat ([1]; saturating Pi): 1.4 s⁻¹
- kcat (F6P) [2]: kcat(F6P) = 8 s^−1
- Km ([2]; read-out: Km(F6P)): 10 mM
- kcat [3]: 16.6 s⁻¹
- kcat (F6P) [4]: kcat (F6P) = 39 s^−1
- Km ([4]; read-out: Km(F6P)): 26 mM
- kcat (F6P) [5]: kcat (F6P) = 33 s^−1
- Km ([5]; read-out: Km(F6P)): 23 mM
- kcat (F6P) [6]: kcat (F6P) = 33 s^−1
- Km ([6]; read-out: Km(F6P)): 11.5 mM
- kcat (F6P) [7]: kcat (F6P) = 40 s^−1
- Km ([7]; read-out: Km(F6P)): 12.5 mM
- kcat (F6P) ([8]; Yevenes and Frey (2008)): kcat(F6P) = 2.7 s^−1
- Km ([8]; read-out: Km(F6P), Yevenes and Frey (2008)): 24 mM
- kcat (F6P) ([9]; Suzuki et al. (2010)): kcat (F6P) = 22.4 s^−1
- Km ([9]; read-out: Km(F6P), Suzuki et al. (2010)): 9.7 mM
- kcat (F6P) [10]: kcat(F6P) = 738 s^−1
- Km ([10]; read-out: Km(F6P)): 5.1 mM
- kcat (F6P) [11]: kcat (F6P) = 0.2 s−1
- Km ([11]; read-out: Km(F6P)): 22 mM

Molecule: O=P(O)(O)O [Pi, inorganic phosphate]
- Km ([8]; for F6P as a substrate, read-out: Km(Pi)): 2.9 mM
- Km ([8]; for X5P as a substrate, read-out: Km(Pi)): 7.5 mM
- Km ([9]; for F6P as a substrate, read-out: KmPi): 1.2 mM

Molecule: O=C[C@H](O)[C@H](O)COP(=O)(O)O [E4P, erythrose 4-phosphate]
- Ki ([8]; for F6P as a substrate, read-out: Kis^E4P): 8 mM
- Ki ([8]; for F6P as a substrate, read-out: Kll^E4P): 4.4 mM

Molecule: O=C(CO)[C@@H](O)[C@H](O)COP(=O)(O)O [X5P, xylulose 5-phosphate]
- Km [1, 13]: 5.81 mM
- Vmax [1, 13]: 2.18 µM/s
- kcat [1, 13]: 4.4 s⁻¹
- kcat ([1]; saturating Pi): 4.4 s⁻¹
- kcat(X5P) [2]: kcat(X5P) = 42 s^−1
- Km ([2]; read-out: Km(X5P)): 55 mM
- kcat(X5P) ([8]; Yevenes and Frey (2008)): kcat(X5P) = 6.1 s^−1
- Km ([8]; Yevenes and Frey (2008), read-out: Km(X5P)): 3.6 mM
- kcat(X5P) ([9]; Suzuki et al. (2010)): kcat (X5P) = 44.8 s^−1
- kcat(X5P) [11]: kcat (X5P) = 3.5 s^−1
- Km ([11]; read-out: Km(X5P)): 1.6 mM

B1: Bifidobacterium longum phosphoketolase (B. longum PKL), SEQ ID NO: 4 (encoded by SEQ ID NO:3) (Bifidobacterium longum subsp. infantis ATCC 15697 = JCM 1222 = … (protein)
chain: MTSPVIGTPWKKLSAPVSEEALEGVDKYWRVANYLSIGQIYLRSNPLMKEPFTREDVKHRLVGHWGTTPGLNFLIGHINRFIADHGQNTVIIMGPGHGGPAGTSQSYLDGTYTETFPKITKDEAGLQKFFRQFSYPGGIPSHFAPETPGSIHEGGELGYALSHAYGAIMDNPSLFVPAIVGDGEAETGPLATGWQSNKLVNPRTDGIVLPILHLNGYKIANPTILSRISDEELHEFFHGMGYEPYEFVAGFDDEDHMSIHRRFAELWETIWDEICDIKATAQTDNVHRPFYPMLIFRTPKGWTCPKYIDGKKTEGSWRSHQVPLASARDTEAHFEVLKNWLESYKPEELFDANGAVKDDVLAFMPKGELRIGANPNANGGVIRDDLKLPNLEDYEVKEVAEFGHGWGQLEATRSLGAYTRDIIKNNPRDFRIFGPDETASNRLQASYEVTNKQWDAGYISDEVDEHMRVSGQVVEQLSEHQMEGFLEAYLLTGRHGIWSSYESFVHVIDSMLNQHAKWLEATVREIPWRKPIASMNLLVSSHVWRQDHNGFSHQDPGVTSVLLNKCFHNDHVIGIYFATDANMLLAIAEKCYKSTNKINAIIAGKQPAATWLTLDEARAELEKGAAAWDWASTAKTNDEAEIVLAAAGDVPTQEIMAASDKLKELGIKFKVVNVVDLLSLQSAKENDEALSNEEFADIFTADKPVLFAYHSYAHDVRGLIYDRPNHDNFNVHGYEEEGSTTTPYDMVRVNRIDRYELTAEALRMIDADKYADKIDELEKFRDEAFQFAVDKGYDHPDYTDWVYSGVNTGKKGAVTATAATAGDNE
- Km [12]: 21.16 mM
- Vmax [12]: 265 µM/min
- kcat [12]: 16.6 s⁻¹
